Experimental data from ChEMBL document CHEMBL3612053, “Discovery and SAR study of 3-(tert-butyl)-4-hydroxyphenyl benzoate and benzamide derivatives as novel farnesoid X receptor (FXR) antagonists” (Bioorg Med Chem, 2015).

Assays:
[1] = Half life in serum (unknown origin); format: ADME, cell-free
Bile acid receptor = target: T1, Bile acid receptor (Homo sapiens, UniProt Q96RI1); test: Antagonist activity at GST-tagged FXR LBD (unknown origin) assessed as inhibition of CDCA-induced Bio-SRC-1 recruitment after 30 mins by HTRF assay
T1 sequence (Q96RI1 whole entry): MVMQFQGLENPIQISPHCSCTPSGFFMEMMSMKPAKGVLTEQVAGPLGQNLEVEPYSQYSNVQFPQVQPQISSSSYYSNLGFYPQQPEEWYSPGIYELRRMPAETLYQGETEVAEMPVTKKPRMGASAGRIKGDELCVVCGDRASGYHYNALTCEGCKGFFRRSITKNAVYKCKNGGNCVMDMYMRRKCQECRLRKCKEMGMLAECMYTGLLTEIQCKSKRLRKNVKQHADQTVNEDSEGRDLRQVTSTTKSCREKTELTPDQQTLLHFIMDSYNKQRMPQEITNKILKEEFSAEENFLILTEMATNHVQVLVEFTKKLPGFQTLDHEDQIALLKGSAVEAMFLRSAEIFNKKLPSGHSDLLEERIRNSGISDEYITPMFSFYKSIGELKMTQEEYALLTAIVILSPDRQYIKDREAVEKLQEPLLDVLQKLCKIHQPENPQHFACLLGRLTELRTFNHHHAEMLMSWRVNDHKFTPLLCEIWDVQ

[2] = target: T2, Bile acid receptor (Homo sapiens) (UniProt Q96RI1); test: Potency index, ratio of guggulsterone IC50 to compound IC50 for GST-tagged FXR LBD (unknown origin)
T2 sequence (whole entry): T1 sequence (Q96RI1 whole entry)

With `CC(C)(C)c1cc(OC(=O)c2ccc([N+](=O)[O-])cc2)ccc1O` the half-life [1] was < 0.25 h and the IC50 (Bile acid receptor) was 12.7 µM.
With `CC(C)(C)c1cc(OC(=O)c2c(Cl)cc(N)cc2Cl)ccc1O` the half-life [1] was < 0.25 h, the IC50 (Bile acid receptor) was 0.6 µM and the Ratio IC50 [2] was 100.
With `C=CCOc1ccc(NC(=O)c2ccc(Cl)cc2Cl)cc1C(C)(C)C` the half-life [1] was > 1 h and the IC50 (Bile acid receptor) was > 100 µM.
In the case of `CC(C)c1cc(NC(=O)c2ccc(Cl)cc2Cl)ccc1O`, the half-life [1] is reported as > 1 h and the IC50 (Bile acid receptor) is reported as > 100 µM.
With `CC(C)(C)c1cc(NC(=O)c2c(Cl)cc(NCc3cccs3)cc2Cl)ccc1O` the half-life [1] was > 1 h and the IC50 (Bile acid receptor) was 8.6 µM.
With `CNc1cc(Cl)c(C(=O)Nc2ccc(O)c(C(C)(C)C)c2)c(Cl)c1` the half-life [1] was > 1 h and the IC50 (Bile acid receptor) was 13.9 µM.
For `CC(C)(C)c1cc(NC(=O)c2c(Cl)cc(N3CCNCC3)cc2Cl)ccc1O`, the half-life [1] was > 1 h and the IC50 (Bile acid receptor) was > 100 µM.
With `CC(C)(C)c1cc(OC(=O)c2ccccc2)ccc1O` the half-life [1] was < 0.25 h and the IC50 (Bile acid receptor) was > 100 µM.
For `CC(C)(C)c1cc(OC(=O)c2ccc(Cl)cc2)ccc1O`, the half-life [1] was < 0.25 h and the IC50 (Bile acid receptor) was > 100 µM.
In the case of `CC(C)(C)c1cc(OC(=O)c2ccc(Cl)cc2Cl)ccc1O`, the half-life [1] is reported as 0.167 h and the IC50 (Bile acid receptor) is reported as 10.2 µM.
In the case of `CC(C)(C)c1cc(NC(=O)c2c(Cl)cc(N3CCCCC3)cc2Cl)ccc1O`, the half-life [1] is reported as > 1 h and the IC50 (Bile acid receptor) is reported as > 100 µM.
With `CC(C)(C)c1cc(OC(=O)c2ccc(N)cc2)ccc1O` the half-life [1] was < 0.25 h and the IC50 (Bile acid receptor) was 34.2 µM.
With `Cc1ccccc1C(=O)Oc1ccc(O)c(C(C)(C)C)c1` the half-life [1] was < 0.25 h and the IC50 (Bile acid receptor) was > 100 µM.
In the case of `CC(=O)Oc1ccc(NC(=O)c2ccc(Cl)cc2Cl)cc1C(C)(C)C`, the half-life [1] is reported as > 1 h and the IC50 (Bile acid receptor) is reported as 15.5 µM.
For `Cc1ccc(C(=O)Oc2ccc(O)c(C(C)(C)C)c2)cc1`, the half-life [1] was < 0.25 h and the IC50 (Bile acid receptor) was > 100 µM.
In the case of `CC(C)(C)c1cc(OC(=O)c2ccc(N)cc2Cl)ccc1O`, the half-life [1] is reported as < 0.25 h and the IC50 (Bile acid receptor) is reported as 7.2 µM.
With `CN(C)c1cc(Cl)c(C(=O)N(CC2CCCCC2)c2ccc(O)c(C(C)(C)C)c2)c(Cl)c1` the half-life [1] was > 1 h and the IC50 (Bile acid receptor) was > 100 µM.
In the case of `CC(C)(C)c1cc(NC(=O)c2c(Cl)cc(NC3CCCCC3)cc2Cl)ccc1O`, the half-life [1] is reported as > 1 h and the IC50 (Bile acid receptor) is reported as 2.5 µM.
For `CC(C)(C)c1cc(NC(=O)c2c(Cl)cc(N)cc2Cl)ccc1O`, the half-life [1] was > 1 h and the IC50 (Bile acid receptor) was 5.2 µM.
With `CC(C)(C)c1cc(OC(=O)Cc2ccccc2)ccc1O` the half-life [1] was < 0.25 h and the IC50 (Bile acid receptor) was > 100 µM.
In the case of `CN(c1cc(Cl)c(C(=O)Nc2ccc(O)c(C(C)(C)C)c2)c(Cl)c1)C1CCCCC1`, the half-life [1] is reported as > 1 h and the IC50 (Bile acid receptor) is reported as > 100 µM.
With `CC(C)(C)c1cc(OC(=O)c2ccco2)ccc1O` the half-life [1] was < 0.25 h and the IC50 (Bile acid receptor) was > 100 µM.
For `CCc1cc(NC(=O)c2ccc(Cl)cc2Cl)ccc1O`, the half-life [1] was > 1 h and the IC50 (Bile acid receptor) was > 100 µM.
For `CCNc1cc(Cl)c(C(=O)Nc2ccc(O)c(C(C)(C)C)c2)c(Cl)c1`, the half-life [1] was > 1 h and the IC50 (Bile acid receptor) was 28.7 µM.
With `CC(C)(C)c1cc(NC(=O)c2ccc(Cl)cc2Cl)cc(C(C)(C)C)c1O` the half-life [1] was > 1 h and the IC50 (Bile acid receptor) was > 100 µM.
For `CC(C)(C)c1cc(NC(=O)c2c(Cl)cc(NC3CCCC3)cc2Cl)ccc1O`, the half-life [1] was > 1 h and the IC50 (Bile acid receptor) was 5 µM.
In the case of `CC(C)(C)c1cc(NC(=O)c2c(Cl)cc(NCc3ccncc3)cc2Cl)ccc1O`, the half-life [1] is reported as > 1 h and the IC50 (Bile acid receptor) is reported as 9.8 µM.
In the case of `CN(C)c1cc(Cl)c(C(=O)N(Cc2cccnc2)c2ccc(O)c(C(C)(C)C)c2)c(Cl)c1`, the half-life [1] is reported as > 1 h and the IC50 (Bile acid receptor) is reported as 6.3 µM.
For `COc1ccccc1C(=O)Oc1ccc(O)c(C(C)(C)C)c1`, the half-life [1] was < 0.25 h and the IC50 (Bile acid receptor) was > 100 µM.
With `CC(C)(C)c1cc(OC(=O)/C=C/c2ccccc2)ccc1O` the half-life [1] was < 0.25 h and the IC50 (Bile acid receptor) was > 100 µM.
For `CN(C)c1cc(Cl)c(C(=O)N(c2ccc(O)c(C(C)(C)C)c2)C2CCCCC2)c(Cl)c1`, the half-life [1] was > 1 h and the IC50 (Bile acid receptor) was > 100 µM.
In the case of `COc1ccc(NC(=O)c2ccc(Cl)cc2Cl)cc1C(C)(C)C`, the half-life [1] is reported as > 1 h and the IC50 (Bile acid receptor) is reported as > 100 µM.
With `CC(C)(C)c1cc(OC(=O)c2ccc([N+](=O)[O-])cc2Cl)ccc1O` the half-life [1] was < 0.25 h and the IC50 (Bile acid receptor) was 8.8 µM.
For `CN(C)c1cc(Cl)c(C(=O)Nc2ccc(O)c(C(C)(C)C)c2)c(Cl)c1`, the half-life [1] was > 1 h and the IC50 (Bile acid receptor) was 1.4 µM.
In the case of `CC(C)(C)c1cc(NC(=O)c2ccc(Cl)cc2Cl)ccc1O`, the half-life [1] is reported as > 1 h and the IC50 (Bile acid receptor) is reported as 13.6 µM.
In the case of `Cc1cc(NC(=O)c2ccc(Cl)cc2Cl)ccc1O`, the half-life [1] is reported as > 1 h and the IC50 (Bile acid receptor) is reported as > 100 µM.
In the case of `CN(C)c1cc(Cl)c(C(=O)N(C)c2ccc(O)c(C(C)(C)C)c2)c(Cl)c1`, the half-life [1] is reported as > 1 h and the IC50 (Bile acid receptor) is reported as 3.9 µM.
In the case of `CC(C)(C)c1cc(OC(=O)c2c(Cl)cc([N+](=O)[O-])cc2Cl)ccc1O`, the half-life [1] is reported as < 0.25 h and the IC50 (Bile acid receptor) is reported as 5.9 µM.
For `CC(C)(C)c1cc(NC(=O)c2c(Cl)cc(NCc3cccnc3)cc2Cl)ccc1O`, the half-life [1] was > 1 h and the IC50 (Bile acid receptor) was 3.6 µM.
